Holding throughout (type): cell-based
In experiment [1] the test system is LACZ-FKBP12^F36V. Kind of experiment: Immunoblotting of PATU-8902 LACZ-FKBP12^F36V clone (Example 6). Particulars: 50 or 500 nM, 4 hrs. Here is the method: (§1) PATU-8902 LACZ-FKBP12^F36V clone was plated in 6-well format, allowed to adhere overnight, and treated with 50 nM and 500 nM dTAG molecules for 4 hrs. Following treatment, cells were lysed in RIPA buffer on ice for 60 minutes. Lysates were clarified by centrifugation at 20,000×g for 10 minutes at 4° C. Immunoblotting was performed to determine changes in protein levels with an Odyssey CLx Imager. The indicated antibodies were employed including HA (hemagglutinin) to monitor LACZ-FKBP12^F36V degradation and α-TUBULIN as a loading control.
(A western blot detects proteins with antibodies after separation by electrophoresis.)

The subject of experiment [2] is LACZ-FKBP12^F36V. In words: Immunoblotting of PATU-8902 LACZ-FKBP12^F36V clone, compound 1 and/or THAL-SNS-032 (Example 7), HA. Particulars: 500 nM compound 1, 24 hrs, single agent. As to the method:
(§2) PATU-8902 LACZ-FKBP12^F36V clone was plated in 6-well format, allowed to adhere overnight, and treated with DMSO and indicated doses of THAL-SNS-032 and/or 500 nM compound 1 for 24 hrs. Following treatment, cells were lysed in RIPA buffer on ice for 60 minutes. Lysates were clarified by centrifugation at 20,000×g for 10 minutes at 4° C. Immunoblotting was performed to determine changes in protein levels with an Odyssey CLx Imager. The indicated antibodies were employed including HA to monitor LACZ-FKBP12^F36V degradation, CDK9 to monitor CDK9 degradation and α-TUBULIN as a loading control.

The subject of experiment [3] is FKBP12^F36V-KRAS^G12V. In words: Immunoblotting of PATU-8902 FKBP12^F36V-KRAS^G12V; KRAS^−/− clone (Example 8), HA. Particulars: 50 or 500 nM, 4 hrs. Here is the method: as §1, with “FKBP12^F36V-KRAS^G12V; KRAS^−/−” for “LACZ-FKBP12^F36V”, “HA” for “HA (hemagglutinin)”, “FKBP12^F36V-KRAS^G12V degradation, total and phosphorylated ERK to evaluate changes in ERK signaling, total and phosphorylated AKT to evaluate changes in AKT signaling” for “LACZ-FKBP12^F36V degradation”

Another experiment has as its system pERK. Kind of experiment: Immunoblotting of PATU-8902 FKBP12^F36V-KRAS^G12V; KRAS^−/− clone (Example 8), ERK signaling. Particulars: 50 or 500 nM, 4 hrs. Here is the method: as §1, with “FKBP12^F36V-KRAS^G12V; KRAS^−/−” for “LACZ-FKBP12^F36V”, “HA” for “HA (hemagglutinin)”, “FKBP12^F36V-KRAS^G12V degradation, total and phosphorylated ERK to evaluate changes in ERK signaling, total and phosphorylated AKT to evaluate changes in AKT signaling” for “LACZ-FKBP12^F36V degradation”

The next experiment deals with pAKT. In words: Immunoblotting of PATU-8902 FKBP12^F36V-KRAS^G12V; KRAS^−/− clone (Example 8), AKT signaling. Particulars: 50 or 500 nM, 4 hrs. Here is the method: as §1, with “FKBP12^F36V-KRAS^G12V; KRAS^−/−” for “LACZ-FKBP12^F36V”, “HA” for “HA (hemagglutinin)”, “FKBP12^F36V-KRAS^G12V degradation, total and phosphorylated ERK to evaluate changes in ERK signaling, total and phosphorylated AKT to evaluate changes in AKT signaling” for “LACZ-FKBP12^F36V degradation”

For experiment [4], the system named is FKBP12^F36V-KRAS^G12V. Kind of experiment: Immunoblotting of PATU-8902 FKBP12^F36V-KRAS^G12V; KRAS^−/− clone with carfilzomib or MLN4924 pre-treatment (Example 9). As to conditions: 500 nM, 4 hrs. Here is the method:
PATU-8902 FKBP12^F36V-KRAS^G12V; KRAS^−/− clone was plated in 6-well format, allowed to adhere overnight, and treated with DMSO, Carflizomib (CARF) or MLN4924 (MLN) prior to treatment with DMSO or compound 1 for 4 hrs. Following treatment, cells were lysed in RIPA buffer on ice for 60 minutes. Lysates were clarified by centrifugation at 20,000×g for 10 minutes at 4° C. Immunoblotting was performed to determine changes in protein levels with an Odyssey CLx Imager. The indicated antibodies were employed including HA to monitor FKBP12^F36V-KRAS^G12V degradation and α-TUBULIN as a loading control.

In experiment [5] the test system is FKBP12^F36V-KRAS^G12V. In words: Immunoblotting of 293T^WT FKBP12^F36V-KRAS^G12V cells. Particulars: 50 or 500 nM, 24 hrs. Here is the method: (§3) 293T^WT or 293T^VHL−/− FKBP12^F36V-KRAS^G12V cells were plated in 6-well format, allowed to adhere overnight, and treated with 50 nM and 500 nM dTAG molecules for 24 hrs. Following treatment, cells were lysed in RIPA buffer on ice for 60 minutes. Lysates were clarified by centrifugation at 20,000×g for 10 minutes at 4° C. Immunoblotting was performed to determine changes in protein levels with an Odyssey CLx Imager. The indicated antibodies were employed including HA to monitor FKBP12^F36V-KRAS^G12V degradation and α-TUBULIN as a loading control.

In experiment [6] the test system is FKBP12^F36V-KRAS^G12V. Kind of experiment: Immunoblotting of 293T^VHL−/− FKBP12^F36V-KRAS^G12V cells. As to conditions: 50 or 500 nM, 24 hrs. As to the method: as §3
Experiment [7] deals with PATU-8902 FKBP12^F36V-KRAS^G12V; KRAS^−/− clone. Kind of experiment: Anti-proliferation via CellTiter-Glo, PATU-8902 FKBP12^F36V-KRAS^G12V; KRAS^−/− clone (Example 11). Particulars: 0.00063-20 μM, 72 hrs. As to the method: (§4) PATU-8902 LACZ-FKBP12^F36V or FKBP12^F36V-KRAS^G12V; KRAS^−/− clones were plated in 384-well format, allowed to adhere overnight, and treated with various dTAG molecules from compound stock plates using a JANUS® Workstation pin tool for 72 hrs. To measure cell viability, CellTilter-Glo® was added to wells for 15 minutes at r.t. and luminescence was measured on an EnVision™ 2104 Multilabel Plate Reader.
Background: In ATP-based viability assays light output follows the ATP content of the culture.

The test system of experiment [8] is PATU-8902 LACZ-FKBP12^F36V clone. Kind of experiment: Anti-proliferation via CellTiter-Glo, PATU-8902 LACZ-FKBP12^F36V control clone (Example 11). As to conditions: 0.00063-20 μM, 72 hrs. Here is the method: as §4
For experiment [9], the system named is PATU-8902 FKBP12^F36V-KRAS^G12V; KRAS^−/− clone. In words: Anti-proliferation via CellTiter-Glo, PATU-8902 FKBP12^F36V-KRAS^G12V; KRAS^−/− clone (Example 12). Particulars: 0.000063-2 μM, 72 hrs. As to the method:
(§5) PATU-8902 LACZ-FKBP12^F36V or FKBP12^F36V-KRAS^G12V; KRAS^−/− clones were plated in 384-well format, allowed to adhere overnight, and treated with various dTAG molecules from compound stock plates using a JANUS® Workstation pin tool for 72 hrs. To measure cell viability, Cell Tilter-Glo® was added to wells for 15 minutes at r.t. and luminescence was measured on an EnVision™ 2104 Multilabel Plate Reader.

For experiment [10], the system named is PATU-8902 LACZ-FKBP12^F36V clone. Kind of experiment: Anti-proliferation via CellTiter-Glo, PATU-8902 LACZ-FKBP12^F36V control clone (Example 12). As to conditions: 0.000063-2 μM, 72 hrs. As to the method:
as §5

For experiment [11], the system named is PATU-8902 FKBP12^F36V-KRAS^G12V; KRAS^−/− clone. Kind of experiment: Cell transformation by growth in ultra-low attachment conditions, PATU-8902 FKBP12^F36V-KRAS^G12V; KRAS^−/− clone (Example 13). As to conditions: 0.000063-2 μM, 120 hrs. As to the method: (§6) PATU-8902 LACZ-FKBP12^F36V or FKBP12^F36V-KRAS^G12V; KRAS^−/− clones were plated in 384-well format in ultra-low attachment conditions, allowed to form 3D-spheroids overnight, and treated with various dTAG molecules from compound stock plates using a JANUS® Workstation pin tool for 120 hrs. To measure cell transformation, Cell Tilter-Glo® was added to wells for 15 minutes at room temperature and luminescence was measured on an EnVision™ 2104 Multilabel Plate Reader.

The subject of experiment [12] is PATU-8902 LACZ-FKBP12^F36V clone. Kind of experiment: Cell transformation by growth in ultra-low attachment conditions, PATU-8902 LACZ-FKBP12^F36V control clone (Example 13). As to conditions: 0.000063-2 μM, 120 hrs. Here is the method: as §6
A further experiment deals with FKBP12^F36V-GFP. Kind of experiment: Immunoblotting of EWS502 FKBP12^F36V-GFP cells. As to conditions: dTAG-13 10-5000 nM, compound 1 50-5000 nM, 24 hrs. As to the method: (§7) EWS502 FKBP12^F36V-GFP and FKBP12^F36V-EWS/FLI; EWS/FLP^−/− cells were plated in 6-well format, allowed to adhere overnight, and treated with (10-5000 nM) dTAG-13 or (50-5000 nM) compound 1 for 24 hrs. Following treatment, cells were lysed in Cell Lysis Buffer (Cell Signaling Technology®) on ice for 60 minutes. Lysates were clarified by centrifugation at 20,000×g for 10 minutes at 4° C. Immunoblotting was performed to determine changes in protein levels upon incubation with the appropriate horseradish peroxidase-conjugated secondary antibodies. The indicated antibodies were employed including HA to monitor FKBP12^F36V-GFP or FKBP12^F36V-EWS/FLI degradation and Vinculin as a loading control.

Another experiment deals with FKBP12^F36V-EWS/FLI. In words: Immunoblotting of EWS502 FKBP12^F36V-EWS/FLI; EWS/FLI^−/− cells. As to conditions: dTAG-13 10-5000 nM, compound 1 50-5000 nM, 24 hrs, EWS502 cells. As to the method: as §7
The next experiment has as its target T1, CDK9 (Homo sapiens, UniProt P50750).
T1 construct: endogenous in cells; host or cells: PATU-8902 LACZ-FKBP12^F36V clone
In words: Immunoblotting of PATU-8902 LACZ-FKBP12^F36V clone, compound 1 and/or THAL-SNS-032 (Example 7), CDK9. Particulars: indicated doses of THAL-SNS-032, 24 hrs, single agent. As to the method: as §2

“Also recorded” adds a separate entry of the source.

With `CC[C@H](C(=O)N1CCCC[C@H]1C(=O)O[C@H](CCc1ccc(OC)c(OC)c1)c1ccccc1OCC(=O)NCCCCCCC(=O)N[C@H](C(=O)N1C[C@H](O)C[C@H]1C(=O)N[C@@H](C)c1ccc(-c2scnc2C)cc1)C(C)(C)C)c1cc(OC)c(OC)c(OC)c1` [Compound 1, (R)-3-(3,4-dimethoxyphenyl)-1-(2-(2-((7-(((S)-1-((2S,4R)-4-hydroxy-2-(((S)-1-(4-(4-methylthiazol-5-yl)phenyl)ethyl)carbamoyl)pyrrolidin-1-yl)-3,3-dimethyl-1-oxobutan-2-yl)amino)-7-oxoheptyl)amino)-2-oxoethoxy)phenyl)propyl (S)-1-((S)-2-(3,4,5-trimethoxyphenyl)butanoyl)piperidine-2-carboxylate], the “degradation of LACZ-FKBP12^F36V (immunoblot)” value is reported as “rapid degradation; also recorded: potent degradation” in the experiment on LACZ-FKBP12^F36V [1] and “potent degradation” in the experiment on LACZ-FKBP12^F36V [2]. The “degradation of FKBP12^F36V-KRAS^G12V (immunoblot)” value in the experiment with FKBP12^F36V-KRAS^G12V [3] and with FKBP12^F36V-KRAS^G12V [4] (DMSO pre-treatment) was “potent degradation” in each case. Also, the “pERK levels (immunoblot)” value with pERK is “pronounced diminished levels”. Also, the “pAKT levels (immunoblot)” value in the experiment on pAKT is reported as “pronounced diminished levels”. For the same compound, the “degradation of FKBP12^F36V-KRAS^G12V after pre-treatment with Nedd8 activating enzyme inhibitor MLN4924 (MLN)” value in the experiment on FKBP12^F36V-KRAS^G12V [4] (MLN4924 pre-treatment) is on record as “rescued”. Further, the “degradation of FKBP12^F36V-KRAS^G12V after pre-treatment with proteasome-inhibitor carfilzomib (CARF)” value in the experiment on FKBP12^F36V-KRAS^G12V [4] (carfilzomib pre-treatment) is recorded as “rescued”. In addition, the “degradation of FKBP12^F36V-KRAS^G12V in 293T^WT cells (immunoblot)” value in the experiment on FKBP12^F36V-KRAS^G12V [5] is “potent degradation”. In the experiment on FKBP12^F36V-KRAS^G12V [6], the “degradation of FKBP12^F36V-KRAS^G12V in 293T^VHL−/− cells (immunoblot)” value was “not and did not degrade”. In addition, the “anti-proliferative effects / loss of cell viability (% DMSO control)” value in experiment [7] and in [9] was “Effective loss of viability; also recorded: potent anti-proliferative effects” throughout. The “anti-proliferative effects on LACZ-FKBP12^F36V control clone” value in experiment [8] and in experiment [10] was “limited effects” each time. The “loss of cell transformation (3D-spheroids, % DMSO control)” value in [11] was “Effective loss of viability; also recorded: potent loss of cell transformation”. In addition, in [12], the “effects on cell transformation of LACZ-FKBP12^F36V control clone” value is recorded as “limited effects”. The “degradation of FKBP12^F36V-GFP (immunoblot)” value with FKBP12^F36V-GFP was “Degradation of GFP (control) is observed; also recorded: potent degradation”. In addition, the “degradation of FKBP12^F36V-EWS/FLI (immunoblot)” value in the experiment with FKBP12^F36V-EWS/FLI is given as “potent degradation”.

For the compound `CC(C)(C)c1cnc(CSc2cnc(NC(=O)C3CCN(CC(=O)NCCOCCOCCOCCNc4cccc5c4C(=O)N(C4CCC(=O)NC4=O)C5=O)CC3)s2)o1` (stereo not shown) [THAL-SNS-032], the “degradation of CDK9 (immunoblot)” value at CDK9 is “potent degradation”.

The values are drawn from patent publication US20220089589A1, “SMALL MOLECULE DEGRADERS OF FKBP12 VIA RECRUITMENT OF VON HIPPEL-LINDAU E3 UBIQUITIN LIGASE (VHL) E3 UBIQUITIN LIGASE, AND USES IN dTAG SYSTEMS” (DANA-FARBER CANCER INSTITUTE, INC., priority 2019, published 2022).
